Results as given in patent publication US6509358B2, “Piperidino-phenyl amino squarate and thiadiazole dioxide beta-3 adrenergic receptor agonists” (Wyeth, priority 2000, dated 2003).

What was measured:
[1] = biological target: T1, human β3-AR (Homo sapiens, UniProt P13945); assay: cAMP accumulation (SPA) in CHO cells transfected with human β3-AR; assay type: cell-based; conditions: for EC50: CHO cells transfected with human β3-AR, cAMP, 30 min at 37° C., 10^-9 M to 10^-5 M; for IA(β3): maximal response of compound relative to maximal response of isoproterenol at 10^-5 M
T1 construct: Full-length β3-AR clones (402 amino acids) containing the last 6 amino acids of hβ3-AR; expressed in transfected cells; host or cells: CHO cells
T1 sequence (P13945 whole entry): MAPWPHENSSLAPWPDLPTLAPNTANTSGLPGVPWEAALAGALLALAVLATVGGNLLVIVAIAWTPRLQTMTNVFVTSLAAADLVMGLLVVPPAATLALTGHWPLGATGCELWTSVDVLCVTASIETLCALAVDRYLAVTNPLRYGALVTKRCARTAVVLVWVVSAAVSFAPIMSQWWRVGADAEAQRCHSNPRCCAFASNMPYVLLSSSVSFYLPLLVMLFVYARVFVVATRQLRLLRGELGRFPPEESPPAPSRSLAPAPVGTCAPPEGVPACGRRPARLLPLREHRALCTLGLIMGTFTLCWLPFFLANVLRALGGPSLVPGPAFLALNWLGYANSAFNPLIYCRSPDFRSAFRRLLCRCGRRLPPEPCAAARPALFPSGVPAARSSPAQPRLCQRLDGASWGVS
Procedure: Binding to the receptors was measured in Chinese Hamster ovary (CHO) cells that were transfected with β1-, β2-, and β3-AR's. The following briefly summarizes the procedures used and results obtained. Cloning of Human β3-AR Genomic DNA: cDNA was constructed by ligating four polymerase chain reaction (PCR) products using the following primers: an ATG-Narl fragment, sense primer [NT] and anti-sense primer [NT]; a […] fragment, [NT] as sense and [NT] as anti-sense primer; an […] fragment, sense primer [NT] and anti-sense primer [NT] and a Styl-TAG fragment, with sense primer [NT] and anti-sense primer [NT]. The corresponding primer sequences are described in Mantzoros, C. S., et.al., Diabetes, 1996, 45, 909-914. The four fragments are ligated into a pUC 18 plasmid (Gibco-BRL) and sequenced. Full-length β3-AR clones (402 amino acids) containing the last 6 amino acids of hβ3-AR are prepared with the β3-β[…]3 from ATTC. Binding Procedure: Clones expressing receptor levels of 70 to 110 fmoles/mg protein were used in the test procedures. CHO cells were grown in 24-well tissue culture plates in Dulbecco's Modified Eagle Media with 10% fetal bovine serum, MEM non-essential amino acids, Penicillin-Streptomycin and Geneticin. On the day of test procedure, growth medium was replaced with preincubation media (Dulbecco's Modified Eagle Media) and incubated for 30 minutes at 37° C. […] Isoproterenol (10^-5 M) was used as an internal standard for comparison of activity. Cells were incubated at 37° C. on a rocker for 30 min with the β3-AR transfected cells and 15 min with β1-AR and β2-AR transfected cells. Incubation was stopped by the addition of 0.2N HCl and the acid was neutralized with 2.5N NaOH. The plates, containing the cells and neutralized media, were stored at -20 ° C. until ready to test for cAMP using the SPA test kit (Amersham). Data Analysis and Results: Data collected from the SPA test procedure were analyzed as percent of the maximal isoproterenol response at 10^-5 M. Activity curves were plotted using the SAS statistical and graphics software. […] IA=% activity compound % activity isoproterenol

EC50 [1] | IA(β3) [1] | melting point | SMILES
42 nM | 0.9 | – | COC(=O)C(Cc1ccccc1)NC1=NS(=O)(=O)N=C1Nc1ccc(N2CCC(NCC(O)c3ccc(O)c(NS(C)(=O)=O)c3)CC2)cc1 [Example 6, Methyl 2-{[4-(4-{4-[((2R)-2-hydroxy-2-{4-hydroxy-3-[(methylsulfonyl)amino]phenyl}ethyl)amino]piperidin-1-yl}anilino)-1,1-dioxido-1,2,5-thiadiazol-3-yl]amino}-3-yl]amino}-3-phenylpropanoate]
99 nM | 0.40 | 120 °C (dec.) | COC(=O)CNC1=NS(=O)(=O)N=C1Nc1ccc(N2CCC(NC[C@H](O)c3ccc(O)c(NS(C)(=O)=O)c3)CC2)cc1 [Example 3, Methyl {[4-(4-{4-[((2R)-2-hydroxy-2-{4-hydroxy-3-[(methylsulfonyl)amino]phenyl}ethyl)amino]piperidin-1-yl}anilino)-1,1-dioxido1,2,5-thiadiazol-3-yl]amino}acetate]
4 nM | 0.96 | 198 to 204 °C | CCCCCCCCNC1=NS(=O)(=O)N=C1Nc1ccc(N2CCC(NC[C@H](O)COc3ccc(O)cc3)CC2)cc1 [Example 4, 4-((2S)-2-Hydroxy-3-{1-[4-(4-octylamino-1,1-dioxo-1H-1.lambda(6)-[1,2,5]thiadiazol-3ylamimo)-phenyl]-piperidin-4-ylamino}-propoxy)-phenol]
– | – | 240 °C (dec.) | COC(=O)[C@@H](Cc1ccccc1)Nc1c(Nc2ccc(N3CCC(NC[C@H](O)c4ccc(O)c(NS(C)(=O)=O)c4)CC3)cc2)c(=O)c1=O (hydrate or solvate) [Example 2, Methyl (2R)-2-{[2-(4-{4-[((2R)-2-hydroxy-2-{4-hydroxy-3-[(methylsulfonyl)amino]phenyl}ethyl)amino]piperidin-1-yl}anilino)-3,4-dioxocyclobut-1-en-1-yl]amino}-3-phenylpropanoate]
200 nM | 0.80 | – | COC(=O)[C@@H](Cc1ccccc1)Nc1c(Nc2ccc(N3CCC(NC[C@H](O)c4ccc(O)c(NS(C)(=O)=O)c4)CC3)cc2)c(=O)c1=O [Example 2, Methyl (2R)-2-{[2-(4-{4-[((2R)-2-hydroxy-2-{4-hydroxy-3-[(methylsulfonyl)amino]phenyl}ethyl)amino]piperidin-1-yl}anilino)-3,4-dioxocyclobut-1-en-1-yl]amino}-3-phenylpropanoate]
– | – | 210 °C (dec.) | COC(=O)C(Cc1ccccc1)NC1=NS(=O)(=O)N=C1Nc1ccc(N2CCC(NCC(O)c3ccc(O)c(NS(C)(=O)=O)c3)CC2)cc1 (hydrate or solvate) [Example 6, Methyl 2-{[4-(4-{4-[((2R)-2-hydroxy-2-{4-hydroxy-3-[(methylsulfonyl)amino]phenyl}ethyl)amino]piperidin-1-yl}anilino)-1,1-dioxido-1,2,5-thiadiazol-3-yl]amino}-3-yl]amino}-3-phenylpropanoate]

SMILES | EC50 [1] | IA(β3) [1] | melting point
O=S1(=O)N=C(NCCc2ccc(F)cc2)C(Nc2ccc(N3CCC(NC[C@H](O)COc4ccc(O)cc4)CC3)cc2)=N1 [Example 5, 4-((2S)-3-[1-(4-{4-[2-(4-Fluoro-phenyl)-ethylamino]-1,1-dioxo-1H-1.lambda(6).-[1,2,5]thiadiazol-3-ylamino}-phenyl)-piperidin-4-ylamino]-2-hydroxy-propoxy}-phenol] | 8 nM | 1.0 | –
COc1ccc(CCNC2=NS(=O)(=O)N=C2Nc2ccc(N3CCC(NC[C@H](O)COc4ccc(O)cc4)CC3)cc2)cc1 [Example 1] | 633 nM | 0.69 | –
